Source: patent US20210369721A1, “SUBLINGUAL FORMULATION FOR HYPOTENSION AND SYNCOPE” (priority 2020, published 2021)
Several values for one entry are separate records, joined by “and”; a condition that tells them apart may be missing. Equal entries are not always repeated.

Experiments:
[1] = tested on: blood donors; conditions: 125 or 250 mg; 95% CI 0.21-0.85; p=0.02; cited from earlier work
[2] = single dose of 200-250 mg, cited from earlier work
[3] = tested on: normal, healthy adults; assay: Phase I CPC sublingual gel: blood pressure and heart rate; type: in vivo, human; conditions: 15-120 minutes
Experimental: Study Methods: The design was an open label, phase I, dose escalation, pharmacokinetic study of a novel gel formulation of capsaicin, phenylephrine, and caffeine administered sublingually to normal, healthy adults.
Dosing and Administration: The product was expressed as fast as feasible from the oral syringe sublingually. The subject was asked to have the gel reside under the tongue for 1 minute before it was swallowed and the mouth was rinsed with water. Multiple rinses were allowed.
Of the three active components of the sublingual dosage, the dose of phenylephrine was the focus of dose escalation.
Study Drug Administration: The subject were asked to sit in a chair that allowed access to their mouth and subsequent blood sampling and continuous BP and HR monitoring. After 15-minute rest, vital signs were taken pre-dose, and SBP had to be ≤130 mmHg in order for dose to be given. If SBP>130 mmHg, the blood pressure was checked again in 15 minutes. If the repeat measurement had SBP≤130 mmHg, the first dose of CPC was given.
The study nurse delivered the appropriate dose to the subject using an oral syringe sublingually. The subject allowed the gel to reside under the tongue for 1 minute before the gel was swallowed and the mouth was rinsed with water that was swallowed. Multiple rinses were allowed as was water ad lib. […]

[4] = Caffeine plasma level after sublingual caffeine+capsaicin in ethanol; type: in vivo, human; conditions: 5 cases; sublingual caffeine 200 mg + capsaicin in ethanol
[5] = tested on: A2 adenosine receptor; conditions: cited from earlier work
[6] = tested on: healthy subjects and 1 patient with a history of VVS; assay: Study 2: Capsaicin alone, tilt table testing; type: in vivo, human
Experimental: In a second study, we tested the effect of Capsaicin alone (50 μL Capsaicin 0.5%) on HR and BP in 3 healthy subjects (1 woman and 2 men mean age 35±18 years) and in 1 patient with a history of VVS during tilt table testing (Table 1).

[7] = clinical; conditions: human, in vivo
Experimental: Pharmacokinetic Sampling: Blood samples were collected via the venous catheter with appropriate pre- and post-sample flushing. If the indwelling venous catheter patency was lost, the phlebotomist or nurse attempted to replace it, if possible. Separate needle sticks could be done for the blood collection.
Samples were collected in 6 mL heparinized tubes at the following time points: Pre-dose, 30 seconds, 1, 2, 5, 15, 30, 45, 60, 90, 120 min, and 3, 4, 6, 8, 12, 24* hours
The lithium heparin tube and 1 K2EDTA tube (capsaicin sample) were immediately placed on ice or refrigerated. […] All blood samples were centrifuged as soon as possible after clotting in a refrigerated centrifuge. The plasma from each tube was equally distributed between 2 polypropylene tubes, labeled and promptly stored at −80° C. until thawed for analysis.

[8] = target: VR1receptor; conditions: micro molar range; cited from earlier work
[9] = cited from earlier work
[10] = tested on: impending syncope (VVS) patients; conditions: cited from earlier work
[11] = tested on: impending VVS; conditions: cited from earlier work
[12] = healthy subjects, individual subjects

## Cn1c(=O)c2c(ncn2C)n(C)c1=O [Caffeine]
[1]
  RR of occurrence of VVRs versus placebo: 0.42
[2]; within 30 minutes
  Increase in SBP: 3-14 mmHg
[2]
  Time of maximal increase in SBP: 60 to 120 min
[3]
  Speculated contribution of Caffeine to SBP elevation: 1-2 mmHg
[4]
  Start of increase in caffeine blood concentration: 30 s
[5]
  Affinity: 9 µM

## COc1cc(CNC(=O)CCCC/C=C/C(C)C)ccc1O [Capsaicin, 8-methyl-N-vanillyl-trans 6-nonenamide]
[6]; 1 patient with VVS
  Symptoms after drug: no
[6]; 1 patient with VVS, pending syncope YES, SBP at time 0 100
  Max SBP after drug: […]
[6]; 1 patient with VVS, HR at time 0 56
  HR after Drug: 80 bpm
[6]; 3 healthy subjects
  Start of SBP increase after sublingual administration: […]
[6]; 3 healthy subjects, from a mean of 120±10 mmHg
  SBP after Capsaicin alone, mean: […]
[6]; Mean of 3 healthy subjects
  Time of max SBP increase, Mean: […]
[6]; Mean of 3 healthy subjects, HR at time 0 mean 78
  HR after Drug, Mean: 96 bpm
[6]; Mean of 3 healthy subjects, SBP at time 0 mean 120
  Max SBP after drug, Mean: […]
[6]; healthy subjects, Capsaicin alone 50 μL 0.5%, individual subjects
  Max SBP after drug: […]
[6]; healthy subjects, conclusion
  Effect on SBP: able to increase SBP
[6]; [12]
  Symptoms after drug: no
[6]; one VVS patient, conclusion
  Effect on loss of consciousness: prevent loss of consciousness
[6]; patient with VVS
  Outcome of tilt test: experienced only presyncope
[6]; patient with VVS, at onset of prodromes, from 100 mmHg
  SBP after capsaicin alone: […]
[7]
  Ratio of the highest blood level detected to EC50: […]
  Time of peak Capsaicin blood level: […]
[8]
  EC50: […]

## CNC[C@H](O)c1cccc(O)c1 [PE, phenylephrine]
[9]; PE blood concentration of 20 nM, 3 mcg/L or 3 ng/ml
  Mean increase in SBP: 3 mmHg
[9]; PE concentration of 9 mcg/L
  Increase in systolic BP, mean: 11 mmHg
  Increase in systolic BP, range: 6-20 mmHg
[7]
  PE blood concentration in the current study: 1 to 2 ng/mL
  concentration at 15 min: ~1 ng/mL
[3]
  Speculated contribution of PE to SBP elevation: 1-2 mmHg
[10]; in vivo
  Effect on vagally-induced bradycardia: unable to counteract the vagally-induced bradycardia
[10]; intra-atrial bolus 1 mg/1 ml at impending syncope
  Effect on blood pressure: immediate marked increase in blood pressure
[10]; intra-atrial bolus 1 mg/1 ml
  Effect on VVS: interrupted VVS in most patients
[10]; mostly
  Time to effect: ≤ 20 s

## CCNCC(O)c1cccc(O)c1 (centres unmarked) [etilefrine]
[11]; intravenous injection, 20% with placebo
  Cases in which impending VVS was aborted: 87%
[11]; mostly
  Time to effect: ≤ 20 s
